Results: patent US20040162263A1, “Pharmaceutical formulations targeting specific regions of the gastrointesinal tract” (priority 2002, published 2004)

What was measured:
[1] = system: fetal hemoglobin levels (Hb F); conditions: orally 8 mg/kg, repeatedly phlebotomized baboon; cited from earlier work
L1210 leukemic mice = conditions: cited from earlier work
[2] = Physico-chemical properties of pentostatin (solubility, stability); type: physicochemical
in vivo = conditions: dog
Experimental: Pentostatin was administered to IVAP beagle dogs (n=3) at 0.2 mg/kg via intravenous, oral and through previously implanted intestinal ports (jejunum, ileum and colon). Extravascular administration of pentostatin was done in saline water for infusion or in a pH=7 phosphate buffer solution to control the intestinal pH. Blood samples were taken systemic and through a port in the portal vein, plasma separated and kept frozen at −20° C. until analysis.
Six adult male beagle dogs (obtained from Summit Ridge Farms, Susquehanna, Pa.; between the ages of 1 and 5 years and weighed between 9 and 16 kg) were prepared with indwelling catheters in the Upper and Lower Small Intestines (USI and LSI), Colon (IC) and Portal Vein (PV) and were dosed with pentostatin at 0.2 mg/kg. The drug formulation was delivered either orally, intraveneously or, in most cases, through the indwelling ports and blood samples were drawn to determine the pharmacokinetics of each permutation. Systemic blood samples were collected from acutely placed IV catheters in the brachial vein, while PV samples were collected through the indwelling port and catheter. All blood samples were spun down, the plasma decanted, frozen and stored at −70 deg Celsius before subject to analysis.
The IVAP dog is prepared with indwelling catheters attached to subcutaneous ports (Titanium Vascular Access Portsg from Access Technologies in Skokie, Ill.) for delivery of drug formulations directly to various parts of the Gastrointestinal Tract. […] In addition, collecting blood samples directly from the portal vein during parenteral as well as oral and intestinal delivery can be combined with direct portal delivery studies to tweeze apart the first pass effects of both liver and intestinal cell enzymatic degradation effects on the drug being tested. Next, delivery of various formulations under different conditions can help in the development of effective oral delivery systems. Finally, delivery of absorption enhancers at various intervals, prior to the delivery of the drug, can be used to determine the recovery time of intestinal wall integrity following dosing with a particular formulation.
IVAP dogs are fitted with three intestinal catheters, in addition to a portal vein catheter. Following induction of general anesthesia, the animal is placed in a supine position, scrubbed and prepped with betadine solution and draped under sterile conditions. A vertical midline incision is made through the skin and the abdominal cavity is entered. A 5F Heparin Coated CBAS® tubing, is inserted into the portal vein and secured with a purse string of 7-0 prolene suture. A small square of Surgicel® is placed over the insertion site and the fascia is closed over it to prevent leakage or dislodging of the tubing. The Upper Small Intestine (USI) port tubing is inserted 10 cm distal to the ligament of Treitz. The small bowel is then measured from the pyloric sphincter to the ileocecal valve and the Lower Small Intestine (LSI) port tubing is inserted one third of the way back from the ileocecal valve. The colon tubing is inserted 10 cm distal to the ileocecal valve (Colon). 7F Sylastic® tubing is used for each intestinal catheter. […] The tubings are secured with a silk “purse-string” suture and the modified Witzel Tunnel technique. After placement of the tubes, the bowel is secured to the abdominal wall and the proximal ends of the tubings are tunneled out of the abdominal cavity and into a subcutaneous pocket on the caudal aspect of the right chest, along with the PV catheter. The abdominal incision is closed in two layers. The Linea Alba is approximated with 0 Vicryl and the skin is closed with 2-0 Vicryl.
In case of IV administration, the drug is dissolved in normal sterile saline to a concentration of 1 mg/ml and is passed through a […] sterilizing filter prior to administration to the brachial vein.

Row | SMILES | elevation in the fetal hemoglobin levels (Hb F) [1] | activity parenteral versus oral (L1210 leukemic mice) | solubility in ethanol and methanol [2] | stability in aqueous solution ([2]; 1 mg/ml) | solid stability at high temperature and humidity ([2]; 37° C., 75% RH) | solubility in water ([2]; at various pHs) | hygroscopicity ([2]; crystalline form) | solid stable ([2]; up to temperatures of 45° C.) | AUC2/AUC1 (portal vein) (in vivo; po) | Relative bioavailability in reference to oral (in vivo; male, beagle) [%] | Ratio Treat2/Treat1 of systemic bioavailability (in vivo; male, beagle, po) | bioavailability % change, AVERAGE (in vivo; male, beagle, po) [%] | decrease in the systemic pentostatin bioavailability (in vivo; male, beagle, po) [%] | Mean systemic AUC0-inf (in vivo; male, beagle, po, 0.2 mg/kg) | bioavailability (in vivo; male, beagle, po, 0.2 mg/kg, Individual bioavailability % change) [%] | AUC(0-inf) (in vivo; male, beagle, po, 0.2 mg/kg, Mean systemic AUC0-inf) [ng·h/mL] | bioavailability (in vivo; male, beagle, po, 0.2 mg/kg, Relative bioavailability calculated in portal vein) [%] | bioavailability (in vivo; male, beagle, po, 0.2 mg/kg, Relative bioavailability in reference to oral) [%] | bioavailability (in vivo; male, beagle, po, 0.2 mg/kg, pH 7, systemic bioavailability (F), mean) [%] | bioavailability (in vivo; male, beagle, po, 0.2 mg/kg, systemic bioavailability (F), mean) [%]
1 | Nc1ncn([C@@H]2O[C@H](CO)[C@@H](O)[C@H]2O)c(=O)n1 [5-azacytidine] | no elevation | more active when administered parenterally than orally |  |  |  |  |  |  |  |  |  |  |  |  |  |  |  |  |  | 
2 | OC[C@H]1O[C@@H](n2cnc3c2NC=NC[C@H]3O)C[C@@H]1O [pentostatin, 2′-deoxycoformycin] |  |  | slightly soluble | most stable at pH 7 or above and degrade quickly at pHs lower than 4 | loses the potency | freely soluble | not hygroscopic | at least 12 months | 1.50 | 620 | 0.51 | −26 | 50 | 10,425 ± 6,652 (64) ng × min/ml | 5 | 340 | 100 | 100 | 14.3 | 28
